According to patent publication EP0429333B1, “Process for producing oxazopyrroloquinolines, novel oxazopyrroloquinolines, and use of oxazopyrroloquinolines” (priority 1989, dated 1991):

Columns and labels:
[1] = molecular target: T1, aldose reductase of rabbit lens (Oryctolagus cuniculus, UniProt P15122); test: Inhibitory effect on aldose reductase of lens; format: biochemical; conditions: read-out: Degree of inhibition for aldose reductase (%); for inhibition at 1 µM: concentration 1x10^-6 M; for inhibition at 2 µM: concentration 2x10^-6 M; for inhibition at 0.5 µM: concentration 5x10^-7 M
T1 construct: to obtain electrophoretically homogeneous aldose reductase; from tissue; host or cells: rabbit lens
Procedure: (§1) 0.05 ml of 3mM NADPH, 0.1 ml of DL-glyceraldehyde and 0.04 ml of distilled water were added to 0.8 ml of 0.1M phosphoric acid buffer (pH 6.2) and left to stand at 25°C for 3 minutes. Then, 0.01 ml of the aldose reductase solution was added thereto to start reaction and decreasing of absorbance of 340 nm was measured at 25°C with time. Amount of enzyme which consumes 1 µmole of NADPH for 1 minute was taken as 1 unit.
Enzyme activity was measured under the same conditions as in the above measurement of aldose reductase activity except that 0.04 ml of aqueous solution of inhibitory substance in various concentrations was added in place of 0.04 ml of distilled water and degree of inhibition was calculated from comparison of the enzyme activity with the enzyme activity obtained in the absence of inhibitor. (1) OPQ, (2) methyl OPQ, (3) 1-methylpropyl OPQ, (4) 2-methylpropyl OPQ, (5) 2-carbamoylethyl OPQ, (6) hydroxymethyl OPQ, (7) 2-methylthioethyl OPQ, (8) 2-carboxyethyl OPQ, (9) 4-hydroxybenzyl OPQ, (10) 1-methylethyl OPQ, and (11) benzyl OPQ were used as inhibition substances and (12) PQQ was used as control.
Lens of rabbit was homogenized with 10mM phosphoric acid buffer (pH 7.0) containing 2mM dithiothreitol in an amount of two times the volume of the lens and subjected to centrifugation. The supernatant liquid was purified by affinity chromatography, gel filtration and chromatofocusing to obtain electrophoretically homogeneous aldose reductase. Using (1) OPQ, (2) 1-methylpropyl OPQ, (3) 2-methylpropyl OPQ, (4) hydroxymethyl OPQ, and (5) 1-methylethyl OPQ as inhibition substances, degree of inhibition of these substances for aldose reductase of rabbit lens was examined in the same manner in Example 32.

[2] = Solubility of the isolated compound, described in words; format: physicochemical; conditions: for solubility in water / solubility under neutral and alkaline conditions: water
[3] = molecular target: aldose reductase of kidney (Canis lupus familiaris, UniProt A0A8I3P2L6); test: Inhibitory effect on aldose reductase of kidney; format: biochemical, dog; conditions: read-out: Degree of inhibition for aldose reductase (%); for inhibition at 1 µM: concentration 1x10^-6 M; for inhibition at 2 µM: concentration 2x10^-6 M; for inhibition at 5 µM: concentration 5x10^-6 M; for inhibition at 0.5 µM: concentration 5x10^-7 M; for inhibition at 10 µM: concentration 1x10^-5 M; for inhibition at 0.2 µM: concentration 2x10^-7 M
Procedure: as §1, with “Medulla of kidney of dog was homogenized with 10mM phosphoric acid buffer (pH 7.0) containing 2mM dithiothreitol in an amount of four times the volume of kidney medulla and subjected to centrifugation. The supernatant liquid was purified by affinity chromatography, gel filtration and chromatofocusing to obtain electrophoretically homogeneous aldose reductase. 0.05” for “0.05”

peritoneal macrophage = test: Test on macrophage-chemotaxis after intraperitoneal administration; format: in vivo, C3H/He mice; conditions: for (2) Chemotaxis factor was present: 50 % zymosan treated serum, no administration 40; for (2) - (1) Chemotaxied macrophage: no administration 29; for Relative activity of group (%): no administration = 100; for (1) Chemotaxis factor was not present: total number of chemotaxied macrophages at 3 points, no administration 11
Procedure: Thirtytwo C3H/He mice (male, 7 weeks old, average body weight 20 g, supplied by Japan Charles River Co.) were divided into 4 groups (A - D) of 8 mice each.
A solution of OPQ in physiological saline of pH 7.0 was intraperitoneally administered to each mouse 7 times, namely, on the 1st day, 2nd day, 3rd day, 4th day, 5th day, 6th day and 7th day. Dosage for one administration per one mouse was as follows: That is, 0.2 ml of the solution containing 0.2 mg/ml of OPQ for group B, 0.2 ml of the solution containing 0.5 mg/ml of OPQ for group C, 0.2 ml of the solution containing 1.0 mg/ml of OPQ for group D and 0.2 ml of physiological saline for group A.
On the 8th day from starting of the experiment, the mice were anesthetized with ether and blood was drawn from carotid artery and 5 ml of cold Hanks solution was intraperitoneally injected and exudate cells for the abdominal cavity were collected. Exudate cells for the abdominal cavity of respective groups were gathered, washed three times with cold Hanks solution and suspended in RPMI medium at 5 x 10^5 cells/ml and macrophage-chemotaxis was measured. 50 % zymosan treated serum was used as chemotaxis factor and examination was conducted at three points for each sample. Number of chemotaxied macrophage was measured on microscope and 13 visual fields was examined for one point and the results are shown in Table 2. The value in the table is a total number of chemotaxied macrophages at 3 points for each sample. Preparation of Hanks solution and RPMI medium will be explained below.
Test on macrophage-chemotaxis was conducted in the same manner as in Example 36 except that hydroxymethyl OPQ was intraperitoneally administered to each mouce 3 times of the 1st day, the 2nd day and the 3rd day in the following dosage for one administration per one mouse: 0.2 ml of hydroxymethyl OPQ solution containing 0.5 mg/ml of hydroxymethyl OPQ for group B, 0.2 ml of the solution containing 1.0 mg/ml of hydroxymethyl OPQ for group C, and 0.2 ml of the solution containing 1.5 mg/ml of hydroxymethyl OPQ for group D and exudate cells for the abdominal cavity were collected on the 4th day from starting of experiment.
In Examples 36 - 40, macrophage activity was examined according to chemotaxis of peritoneal macrophage (literature 1) and activity of T cell and that of B cell were examined according to blast transformation reaction using concanavalin A and lipopolysaccharide, (LPS) as mitogen (literature 2). Literature 1: "Function of Macrophage and Method of Measurement of Function", pages 61-65 1985), edited by Educational Committee of Japan Bacteriological Society and published from Saikon Shuppan Co.) Literature 2: "New Method of Searching of Function of Lymphocytes", pages 350-355 (1987) edited by Junichi Yada and Michio Fujiwara and published from Chugai Igaku Co.

kidney = test: Toxicity to kidney determined by blood examination; format: in vivo, mice; conditions: conclusion from the blood examinations (a) and (b)
Procedure: After one day from administration, the mice were fasted (only water was given) and after lapse of 18 hours, blood was collected and serum was obtained therefrom. Glucose, urea nitrogen and creatinine in the serum were examined using FUJI Dry Chemslide (manufactured by Fuji Photo Film Co., Ltd.). […]
Thereafter, the mice were fasted (with giving only water) and after lapse of 18 hours, blood was collected and serum was obtained therefrom. Contents of glucose, urea nitrogen and creatinine in serum were obtained using FUJI Dry Chemslide. The results were shown by average value for eight mice.

[4] = 5 mg/kg mouse x 3 days intraperitoneally
[5] = 10 mg/kg mouse x 3 days intraperitoneally
[6] = 15 mg/kg mouse x 3 days intraperitoneally

| inhibition at 1 µM [1] [%] | inhibition at 0.5 µM [1] [%] | solubility in acetone and diethyl ether [2] | solubility in lower alcohols [2] | solubility in water [2] | solubility under neutral and alkaline conditions [2] | inhibition at 1 µM [3] [%] | inhibition at 2 µM [3] [%] | inhibition at 5 µM [3] [%] | inhibition at 0.5 µM [3] [%] | inhibition at 10 µM [3] [%] | inhibition at 0.2 µM [3] [%] | Compound | other results |
| --- | --- | --- | --- | --- | --- | --- | --- | --- | --- | --- | --- | --- | --- |
| 43.3 | 33 | did not dissolve | dissolved | easily soluble | very easily soluble | 30.5 | 48.1 | 68.2 |  |  |  | CC(C)c1nc2c3nc(C(=O)O)cc(C(=O)O)c3c3[nH]c(C(=O)O)cc3c2o1 [1-Methylethyl OPQ, 5-(1-Methylethyl)-2,8,10-tricarboxy-1H-oxazo[5,4-h]-pyrrolo[2,3-f]quinoline] | inhibition at 2 µM [1]: 51.9%; inhibition at 5 µM ([1]; concentration 5x10^-6 M): 68.4% |
|  |  | did not dissolve | dissolved | easily soluble | very easily soluble | 59.6 | 75.7 | 89.1 | 44.7 |  |  | NC(=O)CCc1nc2c3nc(C(=O)O)cc(C(=O)O)c3c3[nH]c(C(=O)O)cc3c2o1 [2-Carbamoylethyl OPQ, 5-(2-Carbamoylethyl)-2,8,10-tricarboxy-1H-oxazo[5,4-h]-pyrrolo[2,3-f]quinoline] |  |
|  |  | did not dissolve | dissolved | easily soluble | very easily soluble | 48 | 49.9 | 55 | 22.5 | 58.5 |  | O=C(O)CCc1nc2c3nc(C(=O)O)cc(C(=O)O)c3c3[nH]c(C(=O)O)cc3c2o1 [2-Carboxyethyl OPQ, 5-(2-Carboxyethyl)-2,8,10-tricarboxy-1H-oxazo[5,4-h]-pyrrolo[2,3-f]quinoline] |  |
| 69.8 | 57.2 | did not dissolve | dissolved | easily soluble | very easily soluble | 63.1 |  |  | 44.1 |  | 30.2 | CC(C)Cc1nc2c3nc(C(=O)O)cc(C(=O)O)c3c3[nH]c(C(=O)O)cc3c2o1 [2-Methylpropyl OPQ, 5-(2-Methylpropyl)-2,8,10-tricarboxy-1H-oxazo[5,4-h]-pyrrolo[2,3-f]quinoline] | inhibition at 0.1 µM ([1]; concentration 1x10^-7 M): 27%; inhibition at 0.2 µM ([1]; concentration 2x10^-7 M): 34.9% |
|  |  | did not dissolve | dissolved | easily soluble | especially soluble | 38.6 | 49.4 | 71.3 |  | 89 |  | O=C(O)c1cc(C(=O)O)c2c(n1)c1nc(Cc3ccc(O)cc3)oc1c1cc(C(=O)O)[nH]c12 [4-Hydroxybenzyl OPQ, 5-(4-Hydroxybenzyl)-2,8,10-tricarboxy-1H-oxazo[5,4-h]-pyrrolo[2,3-f]quinoline] |  |
| 50.1 | 31.9 | did not dissolve | dissolved | easily soluble | very easily soluble | 57.9 | 68.2 |  | 41.1 |  | 26.7 | O=C(O)c1cc(C(=O)O)c2c(n1)c1nc(CO)oc1c1cc(C(=O)O)[nH]c12 [Hydroxymethyl OPQ, 5-Hydroxymethyl-2,8,10-tricarboxy-1H-oxazo[5,4-h]-pyrrolo[2,3-f]-quinoline] | inhibition at 2 µM [1]: 60.4%; (2) Chemotaxis factor was present (peritoneal macrophage; [4]): 61; (2) - (1) Chemotaxied macrophage (peritoneal macrophage; [4]): 44; Relative activity of group (%) (peritoneal macrophage; [4]): 152%; (1) Chemotaxis factor was not present (peritoneal macrophage; [4]): 17; (2) Chemotaxis factor was present (peritoneal macrophage; [5]): 66; (2) - (1) Chemotaxied macrophage (peritoneal macrophage; [5]): 56; Relative activity of group (%) (peritoneal macrophage; [5]): 193%; (1) Chemotaxis factor was not present (peritoneal macrophage; [5]): 10; (2) Chemotaxis factor was present (peritoneal macrophage; [6]): 48; (2) - (1) Chemotaxied macrophage (peritoneal macrophage; [6]): 39; Relative activity of group (%) (peritoneal macrophage; [6]): 134%; (1) Chemotaxis factor was not present (peritoneal macrophage; [6]): 9 |
|  |  | did not dissolve | dissolved | easily soluble | very easily soluble | 92.1 |  |  | 73.6 |  | 31.4 | Cc1nc2c3nc(C(=O)O)cc(C(=O)O)c3c3[nH]c(C(=O)O)cc3c2o1 [Methyl OPQ, 5-Methyl-2,8,10-tricarboxy-1H-oxazo[5,4-h]-pyrrolo-[2,3-f]quinoline] | inhibition at 0.1 µM ([3]; concentration 1x10^-7 M): 25% |

| Compound | inhibition at 1 µM [1] [%] | inhibition at 0.5 µM [1] [%] | solubility in acetone and diethyl ether [2] | solubility in lower alcohols [2] | solubility in water [2] | solubility under neutral and alkaline conditions [2] | inhibition at 1 µM [3] [%] | inhibition at 2 µM [3] [%] | inhibition at 5 µM [3] [%] | inhibition at 0.5 µM [3] [%] | inhibition at 10 µM [3] [%] | inhibition at 0.2 µM [3] [%] | other results |
| --- | --- | --- | --- | --- | --- | --- | --- | --- | --- | --- | --- | --- | --- |
| O=C(O)c1cc(C(=O)O)c2c(n1)C(=O)C(=O)c1cc(C(=O)O)[nH]c1-2 [PQQ, pyrroloquinolinequinone, reference compound] |  |  |  |  |  |  |  | 17.3 | 42.8 |  | 64.4 |  | toxicity to kidney (kidney): showed toxicity to kidney |
